The test system of one assay is Canis familiaris. Description: 50% increase in myocardial contractility (dP/dt max) in anesthetized dogs on intravenous dose. The conditions noted are these: Canis lupus familiaris, Myocardium. In kind it is functional.
A further assay has as its target Phosphodiesterase 3 (Homo sapiens, UniProt Q14432+Q13370). Put plainly: Inhibition of cAMP PDE III enzyme. In kind it is protein assay, Cavia porcellus.
Assay [1] has as its target T1, cGMP-dependent 3',5'-cyclic phosphodiesterase (Homo sapiens, UniProt O00408). Description: Inhibition of cAMP PDE II enzyme. On the set-up: species or system Cavia porcellus.
The target in assay [2] is T1, cGMP-dependent 3',5'-cyclic phosphodiesterase. Put plainly: Inhibition of cGMP PDE II enzyme. Set-up: species or system Cavia porcellus.
Assay [3] has as its target T2, Phosphodiesterase 1 (Homo sapiens, UniProt P54750+Q01064+Q14123). Description: Inhibition cGMP PDE I enzyme. In kind it is protein assay, Cavia porcellus.
Assay [4] concerns the target T2, Phosphodiesterase 1. Put plainly: Inhibition of cAMP PDE I enzyme. The assay is classed as protein assay, Cavia porcellus.

Molecules are shown by their SMILES. Where only a bound is given, the exact number is not on record here.

T1 sequence (O00408 whole entry): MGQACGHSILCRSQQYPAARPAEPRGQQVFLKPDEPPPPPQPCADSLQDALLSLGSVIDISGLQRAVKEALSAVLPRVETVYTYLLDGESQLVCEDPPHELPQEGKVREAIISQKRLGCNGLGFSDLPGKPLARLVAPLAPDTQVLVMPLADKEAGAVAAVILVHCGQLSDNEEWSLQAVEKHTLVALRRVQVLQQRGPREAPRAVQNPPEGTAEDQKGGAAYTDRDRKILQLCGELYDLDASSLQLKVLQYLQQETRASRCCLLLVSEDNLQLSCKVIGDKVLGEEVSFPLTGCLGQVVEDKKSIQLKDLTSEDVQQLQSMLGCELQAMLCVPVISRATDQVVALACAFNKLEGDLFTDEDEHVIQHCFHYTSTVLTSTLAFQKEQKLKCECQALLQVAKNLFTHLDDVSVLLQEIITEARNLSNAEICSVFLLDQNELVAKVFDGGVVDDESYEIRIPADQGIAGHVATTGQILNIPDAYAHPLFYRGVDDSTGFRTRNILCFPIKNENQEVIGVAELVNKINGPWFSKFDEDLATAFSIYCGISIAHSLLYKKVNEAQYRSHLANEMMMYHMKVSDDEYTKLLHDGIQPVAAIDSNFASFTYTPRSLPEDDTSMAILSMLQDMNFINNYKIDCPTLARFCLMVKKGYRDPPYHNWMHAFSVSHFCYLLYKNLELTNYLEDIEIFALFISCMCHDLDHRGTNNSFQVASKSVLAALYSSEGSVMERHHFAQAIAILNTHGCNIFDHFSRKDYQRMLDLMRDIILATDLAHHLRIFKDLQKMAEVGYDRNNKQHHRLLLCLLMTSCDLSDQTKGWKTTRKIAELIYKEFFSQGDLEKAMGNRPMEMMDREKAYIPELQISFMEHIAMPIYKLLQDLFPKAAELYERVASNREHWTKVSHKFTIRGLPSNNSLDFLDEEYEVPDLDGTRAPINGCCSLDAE

Broadly, the ED50 is the dose at which the effect has come halfway, by size or by number of responders. `CSc1ccc(C(=O)c2[nH]c(=O)[nH]c2C)cc1` [ENOXIMONE] yielded an ED50 with Canis familiaris of 0.28 mg/kg.
`Cc1[nH]c(=O)c(C#N)cc1-c1ccncc1` [MILRINONE]: the ED50 in the assay with Canis familiaris was 0.04 mg/kg.
By IC50 is commonly meant the concentration that gives 50% inhibition. Low values mean higher potency, high ones lower potency. In turn, `CC1CC(=O)NN=C1c1ccc2c(c1)CCC(=O)N2C` (stereo unspecified) yielded an IC50 at Phosphodiesterase 3 of 0.12 µM.
For the molecule `O=C1CC2Cc3cc(-n4cnc5c4CCCC5)ccc3C2=NN1` (stereo unspecified), the 50% effect level with Canis familiaris (ED50) was put at a dose of 0.05 mg/kg. Besides, the IC50 against Phosphodiesterase 3 was 1.2 µM.
`O=C1CC2Cc3cc(-n4ccnc4)ccc3C2=NN1` (stereo unspecified) registered an ED50 in the assay on Canis familiaris of 0.023 mg/kg.
`CC1=C(c2ccc(-n3ccnc3)cc2)CC(C#N)C(=O)N1` (stereo unspecified) had a 50% effective dose (ED50) in the assay with Canis familiaris of 0.01 mg/kg. The IC50 is 43 µM in assay [1], 120 µM in assay [2], 130 µM against Phosphodiesterase 1 [3] and 39 µM on Phosphodiesterase 1 [4].
The molecule `CCc1[nH]c(=O)[nH]c1C(=O)c1ccncc1` [PIROXIMONE] displayed an ED50 in the assay on Canis familiaris of 0.1 mg/kg.
Take `Nc1cc(-c2ccncc2)c[nH]c1=O` [INAMRINONE]: the ED50 with Canis familiaris came to 0.39 mg/kg. For the same molecule, the IC50 at Phosphodiesterase 1 [3] and against Phosphodiesterase 1 [4] was above 1000 µM each time.
`O=C1CCC(c2cccc(-n3ccnc3)c2)=NN1` had an IC50 on Phosphodiesterase 1 [3] above 1000 µM.

Source of the values: ChEMBL document CHEMBL1123633, “Cardiotonic agents. 8. Selective inhibitors of adenosine 3',5'-cyclic phosphate phosphodiesterase III. Elaboration of a five-point model for positive inotropic activity” (J Med Chem, 1987).
